One experiment has as its target MET (Homo sapiens, UniProt P08581). The experiment is described as follows: scanMAX kinase panel.
For another experiment, the target named is MST1R (Homo sapiens, UniProt Q04912). The experiment is described as follows: scanMAX kinase panel.
The target of the next experiment is VEGFR2 (Homo sapiens, UniProt P35968). The experiment is described as follows: scanMAX kinase panel.
The target of another experiment is T1, AXL (Homo sapiens, UniProt P30530).
T1 sequence (P30530 26-894): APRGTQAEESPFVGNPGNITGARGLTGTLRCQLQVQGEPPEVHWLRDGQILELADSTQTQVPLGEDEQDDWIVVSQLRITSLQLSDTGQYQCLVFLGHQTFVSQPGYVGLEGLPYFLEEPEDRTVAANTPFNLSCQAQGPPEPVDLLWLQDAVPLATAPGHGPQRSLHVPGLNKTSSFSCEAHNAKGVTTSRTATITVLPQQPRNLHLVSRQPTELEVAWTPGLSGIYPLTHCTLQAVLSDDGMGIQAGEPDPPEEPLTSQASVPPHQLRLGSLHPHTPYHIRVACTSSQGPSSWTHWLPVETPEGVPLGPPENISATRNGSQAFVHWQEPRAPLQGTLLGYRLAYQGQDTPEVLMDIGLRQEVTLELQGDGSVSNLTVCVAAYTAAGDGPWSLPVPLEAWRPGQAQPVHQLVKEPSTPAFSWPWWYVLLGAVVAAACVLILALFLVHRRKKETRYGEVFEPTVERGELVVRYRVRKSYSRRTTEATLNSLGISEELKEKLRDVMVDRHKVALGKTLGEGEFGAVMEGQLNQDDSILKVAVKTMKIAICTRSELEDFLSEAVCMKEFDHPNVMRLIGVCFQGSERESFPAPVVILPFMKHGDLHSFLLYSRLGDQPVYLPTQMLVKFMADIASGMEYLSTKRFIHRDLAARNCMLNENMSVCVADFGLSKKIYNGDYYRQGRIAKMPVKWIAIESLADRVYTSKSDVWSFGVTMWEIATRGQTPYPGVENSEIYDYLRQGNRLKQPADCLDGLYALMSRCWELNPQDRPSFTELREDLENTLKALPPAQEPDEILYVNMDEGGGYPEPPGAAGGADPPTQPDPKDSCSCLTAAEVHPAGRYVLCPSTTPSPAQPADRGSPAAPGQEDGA
The experiment is described as follows: scanMAX kinase panel.

The target in another experiment is MKNK1 (Homo sapiens, UniProt Q9BUB5). The experiment is described as follows: scanMAX kinase panel.
Sequence of MKNK1 (Q9BUB5 whole entry): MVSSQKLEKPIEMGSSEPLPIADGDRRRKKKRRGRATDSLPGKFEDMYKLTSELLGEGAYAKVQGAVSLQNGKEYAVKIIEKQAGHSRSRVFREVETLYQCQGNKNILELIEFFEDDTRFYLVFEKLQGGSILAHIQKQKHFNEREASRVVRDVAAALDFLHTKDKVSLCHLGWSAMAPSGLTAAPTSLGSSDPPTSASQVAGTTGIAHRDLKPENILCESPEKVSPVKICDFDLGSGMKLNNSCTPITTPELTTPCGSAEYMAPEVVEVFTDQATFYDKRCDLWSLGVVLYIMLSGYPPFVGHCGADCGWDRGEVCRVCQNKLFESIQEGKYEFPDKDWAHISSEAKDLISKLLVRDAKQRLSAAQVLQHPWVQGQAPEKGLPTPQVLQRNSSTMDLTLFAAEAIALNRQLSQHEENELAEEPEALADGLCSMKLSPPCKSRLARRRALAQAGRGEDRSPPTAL
The test system of another experiment is KM-12 cells. The experiment is described as follows: KM-12 anchorage dependent cell proliferation (CellTiter-Glo). It is filed as cell-based. Particulars: read-out: IC50 KM-12 cell proliferation (anchorage dependent). On the technique in general: Cellular ATP, detected with luciferase, serves as a proxy for viable cell number.
The next experiment has as its target RET (Homo sapiens, UniProt P07949). The experiment is described as follows: scanMAX kinase panel.
The target in another experiment is MKNK2 (Homo sapiens, UniProt Q9HBH9). The experiment is described as follows: scanMAX kinase panel.
Sequence of MKNK2 (Q9HBH9 whole entry): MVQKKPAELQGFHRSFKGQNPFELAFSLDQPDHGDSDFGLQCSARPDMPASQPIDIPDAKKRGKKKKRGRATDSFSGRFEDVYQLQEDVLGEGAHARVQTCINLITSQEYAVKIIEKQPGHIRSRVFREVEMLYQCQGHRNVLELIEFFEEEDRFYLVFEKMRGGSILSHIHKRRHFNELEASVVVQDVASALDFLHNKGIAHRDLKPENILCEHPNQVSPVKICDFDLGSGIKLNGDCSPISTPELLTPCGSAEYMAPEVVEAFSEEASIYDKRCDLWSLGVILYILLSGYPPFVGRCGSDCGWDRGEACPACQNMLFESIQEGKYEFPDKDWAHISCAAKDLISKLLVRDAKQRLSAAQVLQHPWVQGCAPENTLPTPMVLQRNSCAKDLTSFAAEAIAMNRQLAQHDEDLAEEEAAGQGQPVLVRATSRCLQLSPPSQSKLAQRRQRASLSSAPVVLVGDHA
In another experiment the target is T2, MERTK (Homo sapiens, UniProt Q12866).
T2 sequence (Q12866 21-999): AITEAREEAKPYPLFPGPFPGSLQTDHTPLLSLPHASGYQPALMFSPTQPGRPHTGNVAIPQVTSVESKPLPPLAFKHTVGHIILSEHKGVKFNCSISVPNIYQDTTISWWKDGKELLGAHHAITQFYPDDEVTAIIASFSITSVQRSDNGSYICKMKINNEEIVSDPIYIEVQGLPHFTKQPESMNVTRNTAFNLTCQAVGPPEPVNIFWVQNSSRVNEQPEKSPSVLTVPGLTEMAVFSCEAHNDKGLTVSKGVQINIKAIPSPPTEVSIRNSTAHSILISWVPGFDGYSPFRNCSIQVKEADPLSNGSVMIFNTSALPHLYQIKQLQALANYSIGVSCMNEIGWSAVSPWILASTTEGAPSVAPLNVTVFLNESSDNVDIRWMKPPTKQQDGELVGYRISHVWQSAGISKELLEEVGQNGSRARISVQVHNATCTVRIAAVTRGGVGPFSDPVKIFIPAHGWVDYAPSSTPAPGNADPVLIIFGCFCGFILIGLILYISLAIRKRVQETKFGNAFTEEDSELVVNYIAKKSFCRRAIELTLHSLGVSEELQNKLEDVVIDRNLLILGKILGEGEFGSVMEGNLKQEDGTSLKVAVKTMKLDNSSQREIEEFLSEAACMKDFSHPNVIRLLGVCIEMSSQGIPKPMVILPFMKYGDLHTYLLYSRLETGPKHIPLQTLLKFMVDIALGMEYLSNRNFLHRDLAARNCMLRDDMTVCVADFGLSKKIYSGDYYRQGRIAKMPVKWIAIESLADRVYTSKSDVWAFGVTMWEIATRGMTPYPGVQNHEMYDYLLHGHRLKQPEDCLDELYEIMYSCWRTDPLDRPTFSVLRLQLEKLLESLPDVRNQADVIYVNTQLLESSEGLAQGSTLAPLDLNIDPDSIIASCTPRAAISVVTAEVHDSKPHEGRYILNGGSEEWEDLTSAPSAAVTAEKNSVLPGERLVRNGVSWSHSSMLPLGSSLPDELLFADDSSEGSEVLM
The experiment is described as follows: scanMAX kinase panel.

Experiment [1] relates to MKNK1/2 (p-eIF4E S209) in KM-12 cells. The experiment is described as follows: Western blot of p-eIF4E S209 in KM-12 cells. Type of experiment: cell-based. As to conditions: KM-12 cells, 2 hours, western blot; for p-eIF4E reduction (MKNK1/2 inhibition, in words): b12: 100, 500, 1000 nM. As to the method:
20 μg NTRK1 fusion confirmation
T20 (ThermoScientific, Rockford, IL) for 30 minutes. MiniPrep cat# R2051 following manufacturer ’s protocol. […]
(1:2000) (Sigma-Aldrich), HRP-conjugated mouse or primers. The primer sequences are TPM3_Ex3B_F5:
Chalfont, UK). All western blots were developed using Ex12_R5: […]. PCR was […]
(In western blotting, separated proteins are transferred to a membrane and probed.)

Experiment [2] concerns the target TPM3-NTRK1 (p-NTRK1 Y490) in KM-12 cells (Homo sapiens, UniProt P04629+P06753). The experiment is described as follows: Western blot of p-NTRK1 Y490 in KM-12 cells. Particulars: 2 hours, b12: 100, 500, 1000 nM.
The mark [3] stands for this setting: 72 hours, CellTiter-Glo, 2% FBS.

Entries after “also recorded” stand apart in the source; their conditions may differ. Read-outs that look alike come from different tables or passages of the source.

By % Inhibition is commonly meant the share of the control response that was lost under treatment. A lower % Inhibition goes with little suppression. Broadly, the inhibition is the relative decrease from the control value, in per cent.

Sequence of MET (P08581 25-1390): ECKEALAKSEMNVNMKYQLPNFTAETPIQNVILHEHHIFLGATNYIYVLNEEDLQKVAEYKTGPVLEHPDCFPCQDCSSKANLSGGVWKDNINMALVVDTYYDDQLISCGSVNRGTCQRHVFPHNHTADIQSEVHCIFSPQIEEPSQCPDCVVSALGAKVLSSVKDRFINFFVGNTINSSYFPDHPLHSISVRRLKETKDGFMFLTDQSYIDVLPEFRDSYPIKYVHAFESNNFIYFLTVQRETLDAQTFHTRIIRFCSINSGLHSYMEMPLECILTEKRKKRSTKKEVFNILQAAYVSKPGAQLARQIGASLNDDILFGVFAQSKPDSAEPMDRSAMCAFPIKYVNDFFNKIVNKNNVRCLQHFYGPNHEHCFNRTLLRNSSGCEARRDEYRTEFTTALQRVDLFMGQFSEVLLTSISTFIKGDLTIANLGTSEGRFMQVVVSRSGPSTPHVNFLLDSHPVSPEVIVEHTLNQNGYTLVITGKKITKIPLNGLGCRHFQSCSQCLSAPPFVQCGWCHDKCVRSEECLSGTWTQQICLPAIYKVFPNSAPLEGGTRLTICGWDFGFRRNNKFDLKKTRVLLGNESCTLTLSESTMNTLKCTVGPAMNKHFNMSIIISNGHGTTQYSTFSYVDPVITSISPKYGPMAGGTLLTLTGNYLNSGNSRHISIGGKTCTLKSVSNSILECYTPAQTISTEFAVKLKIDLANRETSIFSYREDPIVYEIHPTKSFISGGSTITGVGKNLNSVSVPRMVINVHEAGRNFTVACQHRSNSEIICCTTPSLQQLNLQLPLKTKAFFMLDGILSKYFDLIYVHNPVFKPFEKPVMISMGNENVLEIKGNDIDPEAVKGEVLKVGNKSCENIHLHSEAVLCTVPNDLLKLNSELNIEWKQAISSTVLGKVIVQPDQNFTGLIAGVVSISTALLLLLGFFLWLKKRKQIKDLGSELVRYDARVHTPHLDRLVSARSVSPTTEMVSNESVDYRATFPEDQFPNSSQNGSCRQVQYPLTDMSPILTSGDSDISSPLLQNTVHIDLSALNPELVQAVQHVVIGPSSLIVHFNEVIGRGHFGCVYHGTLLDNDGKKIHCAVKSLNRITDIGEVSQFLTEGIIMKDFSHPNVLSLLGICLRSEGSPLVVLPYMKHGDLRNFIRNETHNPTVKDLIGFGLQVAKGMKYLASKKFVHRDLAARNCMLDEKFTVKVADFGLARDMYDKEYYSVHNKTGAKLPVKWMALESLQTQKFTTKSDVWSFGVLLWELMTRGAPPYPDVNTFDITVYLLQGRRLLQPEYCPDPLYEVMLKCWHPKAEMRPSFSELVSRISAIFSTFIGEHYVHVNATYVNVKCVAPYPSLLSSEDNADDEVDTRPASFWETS
Sequence of MST1R (Q04912 25-1400): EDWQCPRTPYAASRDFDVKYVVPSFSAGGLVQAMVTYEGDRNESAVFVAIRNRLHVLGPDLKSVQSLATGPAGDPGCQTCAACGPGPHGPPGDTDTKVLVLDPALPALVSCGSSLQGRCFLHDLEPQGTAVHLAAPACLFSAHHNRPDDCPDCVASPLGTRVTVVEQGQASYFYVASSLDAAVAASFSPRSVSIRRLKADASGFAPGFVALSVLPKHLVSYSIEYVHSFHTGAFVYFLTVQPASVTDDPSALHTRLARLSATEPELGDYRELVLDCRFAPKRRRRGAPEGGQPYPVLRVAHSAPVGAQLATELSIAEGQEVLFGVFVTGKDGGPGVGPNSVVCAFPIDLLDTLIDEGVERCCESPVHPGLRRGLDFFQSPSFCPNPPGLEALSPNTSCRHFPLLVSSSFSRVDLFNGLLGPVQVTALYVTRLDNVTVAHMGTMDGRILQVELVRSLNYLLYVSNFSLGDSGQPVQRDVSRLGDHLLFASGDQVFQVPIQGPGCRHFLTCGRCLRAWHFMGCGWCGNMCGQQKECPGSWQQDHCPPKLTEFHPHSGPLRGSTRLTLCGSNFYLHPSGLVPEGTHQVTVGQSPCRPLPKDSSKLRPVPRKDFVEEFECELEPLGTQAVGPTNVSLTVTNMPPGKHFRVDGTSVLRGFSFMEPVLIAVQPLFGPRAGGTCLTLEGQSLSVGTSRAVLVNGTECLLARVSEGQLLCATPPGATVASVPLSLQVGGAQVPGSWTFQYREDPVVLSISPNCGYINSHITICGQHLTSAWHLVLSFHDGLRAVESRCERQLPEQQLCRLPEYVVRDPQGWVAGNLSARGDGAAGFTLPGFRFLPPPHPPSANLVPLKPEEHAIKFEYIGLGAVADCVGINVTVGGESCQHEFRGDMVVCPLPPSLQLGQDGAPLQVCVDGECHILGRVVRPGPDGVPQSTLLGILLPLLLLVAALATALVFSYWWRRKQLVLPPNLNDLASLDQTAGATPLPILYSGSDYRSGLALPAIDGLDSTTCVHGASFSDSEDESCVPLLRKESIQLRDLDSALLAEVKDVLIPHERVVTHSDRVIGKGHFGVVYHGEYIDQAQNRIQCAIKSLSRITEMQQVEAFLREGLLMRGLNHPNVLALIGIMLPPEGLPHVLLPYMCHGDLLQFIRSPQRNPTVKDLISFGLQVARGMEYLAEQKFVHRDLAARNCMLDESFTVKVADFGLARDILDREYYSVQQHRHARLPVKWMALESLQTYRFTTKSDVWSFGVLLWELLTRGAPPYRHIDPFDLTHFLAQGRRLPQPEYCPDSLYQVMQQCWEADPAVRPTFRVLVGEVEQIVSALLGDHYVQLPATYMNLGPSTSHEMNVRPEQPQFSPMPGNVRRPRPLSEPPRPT
Sequence of RET (P07949 29-1114): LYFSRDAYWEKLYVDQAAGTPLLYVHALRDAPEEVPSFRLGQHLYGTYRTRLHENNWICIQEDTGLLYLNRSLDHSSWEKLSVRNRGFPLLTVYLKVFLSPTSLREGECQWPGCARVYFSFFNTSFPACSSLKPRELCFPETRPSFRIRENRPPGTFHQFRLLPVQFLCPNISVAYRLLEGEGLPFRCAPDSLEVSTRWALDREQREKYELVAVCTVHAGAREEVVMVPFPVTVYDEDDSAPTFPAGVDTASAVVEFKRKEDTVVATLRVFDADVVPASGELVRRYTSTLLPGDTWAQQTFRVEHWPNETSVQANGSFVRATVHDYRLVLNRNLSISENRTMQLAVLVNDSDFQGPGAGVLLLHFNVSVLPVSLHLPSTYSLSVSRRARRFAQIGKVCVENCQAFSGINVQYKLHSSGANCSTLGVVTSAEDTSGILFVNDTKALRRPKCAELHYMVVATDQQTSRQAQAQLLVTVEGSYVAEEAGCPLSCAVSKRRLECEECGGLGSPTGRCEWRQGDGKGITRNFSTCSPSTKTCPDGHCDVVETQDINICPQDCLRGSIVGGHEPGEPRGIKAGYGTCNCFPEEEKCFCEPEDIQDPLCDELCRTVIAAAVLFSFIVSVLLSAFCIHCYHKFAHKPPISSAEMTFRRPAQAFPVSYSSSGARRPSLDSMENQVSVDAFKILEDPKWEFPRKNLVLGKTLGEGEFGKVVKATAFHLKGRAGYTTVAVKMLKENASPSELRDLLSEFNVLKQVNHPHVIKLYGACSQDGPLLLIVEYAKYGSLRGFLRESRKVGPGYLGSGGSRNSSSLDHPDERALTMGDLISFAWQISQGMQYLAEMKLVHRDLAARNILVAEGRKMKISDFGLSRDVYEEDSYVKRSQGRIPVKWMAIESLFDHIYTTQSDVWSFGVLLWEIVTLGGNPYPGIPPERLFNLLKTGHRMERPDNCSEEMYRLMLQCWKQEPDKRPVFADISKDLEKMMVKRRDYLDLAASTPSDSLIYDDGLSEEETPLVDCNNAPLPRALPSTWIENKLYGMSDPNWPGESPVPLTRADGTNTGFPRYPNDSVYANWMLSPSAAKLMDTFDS

Turning to `Cc1ccc(C(=O)Nc2ccc(Oc3cc4cn[nH]c4cc3-c3cn[nH]c3)c(F)c2)c(=O)n1-c1ccc(F)cc1` [M1], at MET, the “% Inhibition at 0.2 μM, MET” value stood at 100%. Further, the “% Inhibition at 0.2 μM, MST1R” value at MST1R was 95%. For the same molecule, the “% Inhibition at 0.2 μM, VEGFR2” value on VEGFR2 is 72%. Besides, the “% Inhibition at 0.2 μM, AXL” value on AXL is 99%. The “% Inhibition at 0.2 μM, MKNK1” value at MKNK1 turned out to be 70%. For the same molecule, the IC50 in the experiment with KM-12 cells (setting [3]) is 16 nM. The “% Inhibition at 0.2 μM, RET” value at RET is given as 72%. For the same molecule, on MKNK2, the “% Inhibition at 0.2 μM, MKNK2” value is on record as 98%. The “% Inhibition at 0.2 μM, MERTK” value at MERTK was 99%. Besides, in [1], the “p-eIF4E reduction (MKNK1/2 inhibition, in words)” value is listed as “potent inhibition”. For the same molecule, in [2], the “p-NTRK1 inhibition (in words)” value was “potent inhibition”.
On to `Cn1ncc2cc(Oc3ccc(NC(=O)c4ccc(CO)n(-c5ccc(F)cc5)c4=O)cc3F)c(-c3cn[nH]c3)cc21` [M2], for which the “% Inhibition at 0.2 μM, MET” value on MET is recorded as 93%. At MST1R, the “% Inhibition at 0.2 μM, MST1R” value was 88%. Moreover, the “% Inhibition at 0.2 μM, VEGFR2” value at VEGFR2 is reported as 43%. Further, on AXL, the “% Inhibition at 0.2 μM, AXL” value is listed as 100%. Besides, on MKNK1, the “% Inhibition at 0.2 μM, MKNK1” value was determined as 62%. Moreover, the IC50 in the experiment on KM-12 cells (setting [3]) turned out to be 102 nM. Besides, on RET, the “% Inhibition at 0.2 μM, RET” value is reported as 61%. Also, the “% Inhibition at 0.2 μM, MKNK2” value on MKNK2 is 95%. The “% Inhibition at 0.2 μM, MERTK” value at MERTK was 93%. Also, in experiment [1], the “p-eIF4E reduction (MKNK1/2 inhibition, in words)” value is listed as “slightly less so”. Also, the “p-NTRK1 inhibition (in words)” value in experiment [2] is reported as “slightly less so”.
As for `Cc1ccc(C(=O)Nc2ccc(Oc3cc4cnn(C)c4cc3-c3cn[nH]c3)c(F)c2)c(=O)n1-c1ccc(F)cc1` [Merestinib], on MET, the “% Inhibition at 0.2 μM, MET” value came out at 98%. For the same molecule, on MST1R, the “% Inhibition at 0.2 μM, MST1R” value worked out at 96%. Also, the “% Inhibition at 0.2 μM, VEGFR2” value on VEGFR2 is listed as 63%. Besides, the inhibition at 0.2 µM stood at 100% at AXL (read-out: % Inhibition at 0.2 μM, AXL); 56% on MKNK1 (read-out: % Inhibition at 0.2 μM, MKNK1); 98% at MKNK2 (read-out: % Inhibition at 0.2 μM, MKNK2); 96% on MERTK (read-out: % Inhibition at 0.2 μM, MERTK). In addition, the IC50 with KM-12 cells (Homo sapiens, KM12, 72 h) came to 10 nM. For the same molecule, the “% Inhibition at 0.2 μM, RET” value at RET turned out to be 79%. For the same molecule, in experiment [1] (3.9-1000 nM), the “Concentration giving near-complete inhibition of p-eIF4E” value is listed as 62.5 nM. For the same molecule, the “p-eIF4E reduction (MKNK1/2 inhibition, in words)” value in experiment [1] is on record as “potent inhibition”. The “p-NTRK1 inhibition (in words)” value in [2] is “dose dependent decrease; also recorded: potent inhibition”.

Source of the values: article PMC5862616 (Oncotarget, 2018).
